Publication PMC4790291, “Short, Synthetic Cationic Peptides Have Antibacterial Activity against Mycobacterium smegmatis by Forming Pores in Membrane and Synergizing with Antibiotics” (Antibiotics, 2015)
Converted amounts (≈) assume the structure as drawn. “And” between values parts separate entries of the source, which are not always exact repeats. Equal values may be shown once. Read-outs that look alike come from different tables or passages of the source. Positions of bridges follow the written chain, without caps; N, C: chain ends. Non-standard residues stand in square brackets, D forms with d. Residues, ends and D or L forms follow the SMILES beside them. No end group written: not given here. *: point of attachment. X1 = CC[C@H](C)CCCCC(=O)*; Dab = NCC[C@H](N)C(=O)O

Assays:
M. smegmatis mc^2155 [1] = assay: microbe, parasite or virus in culture; details: Mycolicibacterium smegmatis, MC^2155, 3 h
Experimental: (§1) The antimicrobial activity for each peptide was determined through 3 h incubation time. The appropriate dilutions of each well were plated in triplicate and the extent of killing for the peptides were determined.
(§2) Briefly, 1 × 10^5 CFU per well of bacteria were incubated with different peptide concentrations in a 50 μL solution of Buffer Q consisting of 10 mM potassium phosphate buffer at pH 7.2 and 0.1% MB7H9 (3 h, 37 °C). Serial dilutions were then prepared in Buffer Q and plated in triplicate on MB7H9 plates, which were incubated (37 °C, 24 to 48 h) and CFUs counted. […] EC50 values were determined by plotting percent killing as a function of the log of peptide concentration (log μg/mL), and fitting the data from the antimicrobial assays to a standard sigmoidal dose-response curve, using Equation (1), where Y corresponds to bacterial killing (%) at a given peptide concentration (μg/mL), with X being the logarithm of that concentration (log μg/mL). In the equation, “Top” and “Bottom” refer to the upper and lower boundaries, and were constrained to values <100% and >0%, respectively.

M. smegmatis mc^2155 [2] = tested on: M. smegmatis mc^2155
Experimental: as §1, §2

M. smegmatis [3] = details: for MIC: 48 h
M. smegmatis [4] = details: for MIC Alone / MIC Combined (antibiotic): checkerboard; for MIC Alone: 37 °C, about 10^5 CFU/mL, single agent; for FIC (peptide) / FIC (antibiotic): MIC in combination/MIC alone; for FICI: FICI ≤ 0.5 synergy, 0.5-1.0 additive, 1.0-4.0 indifferent, > 4.0 antagonism
[5] = cited from earlier work
M. smegmatis membrane = assay: Bacterial cytoplasmic membrane depolarization assay, DiSC3(5); type: cell-based, Mycobacterium smegmatis
Experimental: Membrane depolarization assay was studied using DiSC3(5) as previously reported. Depolarization of a membrane can be visualized by a […] in fluorescence. After interaction with intact cytoplasmic membrane, the fluorescent probe DiSC3(5) was quenched. After incubation with the antimicrobial peptide, the membrane potential was lost, and the probe was released to the medium, ensuing in an increase of fluorescence that can be quantified and monitored as a function of time. In brief, enumerated frozen bacteria were pelleted and washed twice in phosphate buffer (pH 7.2) and then resuspended to 4 × 10^7 CFU/mL in phosphate buffer containing 50 μg/mL DiSC3(5). Then, 100 uLs of this suspension was added to wells of a black 96-well plate. The plate was incubated in a TECAN Safire2 spectrofluorometer and monitored until fluorescence leveled off. Next, 100 μLs of various concentrations of peptide in phosphate buffer (pH 7.2) were added to each well. Bacteria without peptide and peptide without bacteria served as controls. The plate was immediately returned to the spectrofluorometer. Readings were taken every 15 s for 5 min (excitation = 622 nm; emission = 670 nm).
Figure 1 Membrane depolarization activity by LL-37, mCRAMP, hBD3-Pep4, ATRA-1A, ATRA-2, and NA-CATH. Depolarization determined using DiSC3(5) (50 μg/mL) at multiple concentrations of peptide (50, 25, 5, and 0.5 μg/mL). […]

M. tuberculosis [6] = details: LL-37 ref 30; hBD3 ref 33; cited from earlier work
Experimental: While the EC50 experiments are typically carried out in 10 mM phosphate buffer with pH 7.2 for 3 h, the Minimal Inhibitory Concentration (MIC) is determined in bacterial broth (resulting in a higher salt concentration) with a 48 h incubation. We confirmed the sensitivity of M. smegmatis to common antibiotics such as polymyxin B, rifampicin, and fosmidomycin [35, 36, 37]. […] The reported MIC of full-length hBD ...

M. smegmatis [7] = assay: Ethidium bromide uptake assay (membrane permeation); details: 50 μg/mL peptide, 10 μM ethidium bromide, examined at 20 min, 37 °C, n = 3, Figure 2
Experimental: Bacterial cytoplasmic membrane permeation is monitored by using the ethidium bromide uptake assay. […] M. smegmatis is grown until log phase in MB7H9 (Difco) broth with 2% (w/v) glucose as the carbon source, and 0.05% (v/v) Tween 80 in a shaking incubator (37 °C). Bacteria is centrifuged, washed with PBS, and then adjusted to an OD 600 nm of 0.1 Phosphate Buffer. 180 μL of bacteria is added to 10 μL ethidium bromide (10 μM final concentration) and 10 μL peptide in various concentrations, the experiment was performed in triplicate. The plate is read in a Tecan Safire^2 spectrofluorometer every 2 min for 30 min at 37 °C: (excitation = 540 nm, emission = 590 nm). Peak RFU at 20 min is used in Figure 2, and values were analyzed against wells with no peptide treatment with a Student’s t-test.
Permeablization of membrane after 20 min was compared. Experiments were performed in triplicate (n = 3).

M. tuberculosis [8] = details: 100 μg/mL of peptide; cited from earlier work
M. smegmatis [9] = tested on: M. smegmatis; parameters: method as in earlier work; details: 10 μg/mL of LL-37; ref 9 (Sonawane et al.); cited from earlier work
M. smegmatis [10] = assay: microbe, parasite or virus in culture; details: Mycolicibacterium smegmatis, 48 h
M. smegmatis [11] = assay: microbe, parasite or virus in culture; details: Mycolicibacterium smegmatis, 72 h, read-out: MIC Alone
[12] = from EC50 in μM, above 1 = more potent than rifampicin
[13] = from MIC in μM, above 1 = less potent than rifampicin
[14] = same assay as μg/mL value, 3 h, 10 mM phosphate buffer
[15] = in combination with polymyxin B
[16] = peptide combined with polymyxin B

O=CN(O)CCCP(=O)(O)O [Fosmidomycin]
EC50 (M. smegmatis mc^2155 [1]): 780 nM
EC50 (M. smegmatis mc^2155 [1]; pH 7.2): 0.14 µg/mL
Fold vs. Rifampicin (M. smegmatis mc^2155 [2]; [12]): 0.20
Fold vs. Rifampicin (μM) (M. smegmatis [3]; [13]): 0.39

CC[C@H](C)CCCCC(=O)N[C@@H](CCN)C(=O)N[C@H](C(=O)N[C@@H](CCN)C(=O)N[C@H]1CCNC(=O)[C@H]([C@@H](C)O)NC(=O)[C@H](CCN)NC(=O)[C@H](CCN)NC(=O)[C@H](CC(C)C)NC(=O)[C@@H](Cc2ccccc2)NC(=O)[C@H](CCN)NC1=O)[C@@H](C)O [Polymyxin B] (X1-[Dab]T[Dab][Dab][Dab][dF]L[Dab][Dab]T; lactam 4-C (inferred); N-terminus assumed)
Fold vs. Rifampicin (M. smegmatis mc^2155 [2]): 1.65
EC50 (M. smegmatis mc^2155 [2]; mc^2155, 3 h): 96 nM
Fold vs. Rifampicin (μM) (M. smegmatis [3]): 1.26
MIC (M. smegmatis [3]): 5.99 µM (≈ 7.21 µg/mL)
MIC Alone (M. smegmatis [4]; 72 h): 7.8 µg/mL

GLLRKGGEKIGEKLKKIGQKIKNFFQKLVPQPEQ [mCRAMP]
EC50 (M. smegmatis mc^2155 [2]; mc^2155, 3 h): 44 nM
MIC (M. smegmatis [3]): 4.02 µM
Hemolytic activity [5]: no hemolytic activity

RGRRSSRRKK-NH2 [hBD3-Pep4]
EC50 (M. smegmatis mc^2155 [2]; mc^2155, 3 h): 287 nM
MIC (M. smegmatis [3]): 48.65 µM

CC[C@H](C)[C@H](NC(=O)[C@H](CCCCN)NC(=O)[C@H](CCC(=O)O)NC(=O)[C@H](CCCCN)NC(=O)[C@H](CO)NC(=O)[C@H](CCCCN)NC(=O)[C@H](CCCNC(=N)N)NC(=O)[C@H](Cc1ccccc1)NC(=O)[C@H](Cc1ccccc1)NC(=O)[C@H](CC(=O)O)NC(=O)CNC(=O)[C@H](CC(C)C)NC(=O)[C@@H](N)CC(C)C)C(=O)NCC(=O)N[C@@H](CCCCN)C(=O)N[C@@H](CCC(=O)O)C(=O)N[C@@H](Cc1ccccc1)C(=O)N[C@@H](CCCCN)C(=O)N[C@@H](CCCNC(=N)N)C(=O)N[C@H](C(=O)N[C@H](C(=O)N[C@@H](CCC(N)=O)C(=O)N[C@@H](CCCNC(=N)N)C(=O)N[C@H](C(=O)N[C@@H](CCCCN)C(=O)N[C@@H](CC(=O)O)C(=O)N[C@@H](Cc1ccccc1)C(=O)N[C@@H](CC(C)C)C(=O)N[C@@H](CCCNC(=N)N)C(=O)N[C@@H](CC(N)=O)C(=O)N[C@@H](CC(C)C)C(=O)N[C@H](C(=O)N1CCC[C@H]1C(=O)N[C@@H](CCCNC(=N)N)C(=O)N[C@H](C(=O)N[C@@H](CCC(=O)O)C(=O)N[C@@H](CO)C(=O)O)[C@@H](C)O)C(C)C)[C@@H](C)CC)C(C)C)[C@@H](C)CC [LL-37]
Membrane depolarization (M. smegmatis membrane; DiSC3(5) 50 μg/mL, within 1 min, peptide 50, 25, 5 and 0.5 μg/mL, phosphate buffer pH 7.2, n = 6, Figure 1): > 70%
Lowest concentration that depolarizes the M. smegmatis membrane (M. smegmatis membrane; DiSC3(5), p < 0.001): ≤ 0.5 µg/mL
MIC against M. tuberculosis (M. tuberculosis [6]): 5 µg/mL (≈ 1.11 µM)
EC50 (M. smegmatis mc^2155 [2]; 1 × 10^5 CFU per well, 10 mM potassium phosphate buffer pH 7.2 with 0.1% MB7H9, 3 h, 37 °C, CFU plated in triplicate, sigmoidal fit): 0.27 µg/mL
Fold vs. Rifampicin (M. smegmatis mc^2155 [2]; [12]): 2.65
EC50 (M. smegmatis mc^2155 [2]; [14]): 60 nM
Extent of permeabilization (ethidium bromide uptake) (M. smegmatis [7]): very efficient
Fold vs. Rifampicin (μM) (M. smegmatis [3]; [13]): 0.85
Killing of M. tuberculosis (M. tuberculosis [8]): 65%
Intracellular killing (M. smegmatis [9]): 50%
MIC Alone (M. smegmatis [4]; 72 h): 31.3 µg/mL
FIC (peptide) (M. smegmatis [4]; [15]): 0.12
FIC (peptide) (M. smegmatis [4]; in combination with rifampicin): 0.12
FICI (M. smegmatis [4]; [16]): 0.37

KRAKKFFKKLK-NH2 [ATRA-1A]
EC50 (M. smegmatis mc^2155 [2]; [14]): 35 nM
Hemolysis ([5]; compared to PBS (pH 7)): did not elicit statistically significant hemolysis
FIC (peptide) (M. smegmatis [4]; [15]): 0.12
FICI (M. smegmatis [4]; [16]): 0.37
FICI (M. smegmatis [4]; peptide combined with rifampicin): 0.56

CO[C@H]1/C=C/O[C@@]2(C)Oc3c(C)c(O)c4c(O)c(c(/C=N/N5CCN(C)CC5)c(O)c4c3C2=O)NC(=O)/C(C)=C\C=C\[C@H](C)[C@H](O)[C@@H](C)[C@@H](O)[C@@H](C)[C@H](OC(C)=O)[C@@H]1C [Rifampicin]
EC50 (M. smegmatis mc^2155 [1]): 159 nM
EC50 (M. smegmatis mc^2155 [1]; pH 7.2): 0.13 µg/mL
Fold vs. Rifampicin (M. smegmatis mc^2155 [2]; [12]): 1.0
Fold vs. Rifampicin (μM) (M. smegmatis [3]; [13]): 1
MIC (M. smegmatis [10]): 3.9 µg/mL and 4.73 µM
MIC Combined (antibiotic) (M. smegmatis [4]; in combination with ATRA-1A, 72 h): 1.95 µg/mL
MIC Combined (antibiotic) (M. smegmatis [4]; in combination with LL-37, 72 h): 0.97 µg/mL
MIC Combined (antibiotic) (M. smegmatis [4]; in combination with hBD3-Pep4, 72 h): 1.95 µg/mL
MIC Combined (antibiotic) (M. smegmatis [4]; in combination with mCRAMP, 72 h): 0.97 µg/mL
FIC (antibiotic) (M. smegmatis [4]; in combination with ATRA-1A): 0.5
FIC (antibiotic) (M. smegmatis [4]; in combination with LL-37): 0.25
FIC (antibiotic) (M. smegmatis [4]; in combination with hBD3-Pep4): 0.5
FIC (antibiotic) (M. smegmatis [4]; in combination with mCRAMP): 0.25
MIC (M. smegmatis [11]): 3.9 µg/mL (≈ 4.74 µM)
